Source: PMC4051630, “A Comparison of Protein Kinases Inhibitor Screening Methods Using Both Enzymatic Activity and Binding Affinity Determination” (PLoS ONE, 2014)
Where two headings read alike, the source gives them in different places.

Experiments:
Experiment in all cases: Differential Scanning Fluorimetry (DSF) Tm shift
Assay type in all cases: binding
[1] = target: T1, CDK2 + Cyclin A (Homo sapiens, UniProt P24941)
T1 construct: CDK2 (P24941); 1–299; His-tag; made in house; host or cells: Escherichia coli

[2] = target: T2, PAK4 Catalytic Domain (Homo sapiens, UniProt O96013); details: 2 µM protein, 10 µM inhibitor, average of 3 experiments, each in duplicate
T2 construct: For all of them, we expressed and purified the catalytic domain separately; His-tag; made in house; host or cells: Escherichia coli

[3] = target: T3, PAK7 Catalytic Domain (Homo sapiens, UniProt Q9P286); details: 2 µM protein, 10 µM inhibitor, average of 3 experiments, each in duplicate
T3 construct: For all of them, we expressed and purified the catalytic domain separately; His-tag; made in house; host or cells: Escherichia coli

[4] = target: T4, CHK2 Catalytic Domain (Homo sapiens, UniProt O96017); details: 2 µM protein, 10 µM inhibitor, average of 3 experiments, each in duplicate
T4 construct: For all of them, we expressed and purified the catalytic domain separately; His-tag; made in house; host or cells: Escherichia coli

[5] = target: T5, FAK2 Catalytic Domain (Homo sapiens, UniProt Q14289); details: 2 µM protein, 10 µM inhibitor, average of 3 experiments, each in duplicate
T5 construct: For all of them, we expressed and purified the catalytic domain separately; His-tag; made in house; host or cells: Escherichia coli

[6] = target: T6, AKT3 Catalytic Domain (Homo sapiens, UniProt Q9Y243); details: 2 µM protein, 10 µM inhibitor, average of 3 experiments, each in duplicate
T6 construct: AKT3 (Q9Y243); CD; His-tag; made in house; host or cells: Escherichia coli

[7] = target: SRC Catalytic Domain+SH2+SH3 (Homo sapiens, UniProt P12931); details: 2 µM protein, 10 µM inhibitor, average of 3 experiments, each in duplicate
[8] = target: SRC Catalytic Domain (Homo sapiens, UniProt P12931); design: For all of them, we expressed and purified the catalytic domain separately; His-tag; made in house; host or cells: Escherichia coli; details: 2 µM protein, 10 µM inhibitor, average of 3 experiments, each in duplicate
[9] = target: T7, FES Catalytic Domain (Homo sapiens, UniProt P07332); details: 2 µM protein, 10 µM inhibitor, average of 3 experiments, each in duplicate
T7 construct: For all of them, we expressed and purified the catalytic domain separately; His-tag; made in house; host or cells: Escherichia coli

[10] = target: T8, FES Catalytic Domain+SH2 (Homo sapiens, UniProt P07332); details: 2 µM protein, 10 µM inhibitor, average of 3 experiments, each in duplicate
T8 construct: for 8, we also made a longer version containing one or more additional domains; His-tag; made in house; host or cells: Escherichia coli

[11] = target: T9, DMPK Catalytic Domain (Homo sapiens, UniProt Q09013); details: 2 µM protein, 10 µM inhibitor, average of 3 experiments, each in duplicate
T9 construct: For all of them, we expressed and purified the catalytic domain separately; His-tag; made in house; host or cells: Escherichia coli
T9 sequence (Q09013 71-339 limits assumed): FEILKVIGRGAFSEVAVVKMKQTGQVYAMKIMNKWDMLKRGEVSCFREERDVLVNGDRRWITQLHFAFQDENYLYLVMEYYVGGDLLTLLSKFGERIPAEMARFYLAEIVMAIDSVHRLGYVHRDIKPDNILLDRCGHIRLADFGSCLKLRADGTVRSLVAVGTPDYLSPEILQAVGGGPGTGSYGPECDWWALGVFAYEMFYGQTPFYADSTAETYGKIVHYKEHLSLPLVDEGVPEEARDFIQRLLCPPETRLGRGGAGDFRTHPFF

[12] = target: T10, STK3 Catalytic domain+SARAH (Homo sapiens, UniProt Q13188); details: 2 µM protein, 10 µM inhibitor, average of 3 experiments, each in duplicate
T10 construct: for 8, we also made a longer version containing one or more additional domains; His-tag; made in house; host or cells: Escherichia coli
T10 sequence (Q13188 1-491): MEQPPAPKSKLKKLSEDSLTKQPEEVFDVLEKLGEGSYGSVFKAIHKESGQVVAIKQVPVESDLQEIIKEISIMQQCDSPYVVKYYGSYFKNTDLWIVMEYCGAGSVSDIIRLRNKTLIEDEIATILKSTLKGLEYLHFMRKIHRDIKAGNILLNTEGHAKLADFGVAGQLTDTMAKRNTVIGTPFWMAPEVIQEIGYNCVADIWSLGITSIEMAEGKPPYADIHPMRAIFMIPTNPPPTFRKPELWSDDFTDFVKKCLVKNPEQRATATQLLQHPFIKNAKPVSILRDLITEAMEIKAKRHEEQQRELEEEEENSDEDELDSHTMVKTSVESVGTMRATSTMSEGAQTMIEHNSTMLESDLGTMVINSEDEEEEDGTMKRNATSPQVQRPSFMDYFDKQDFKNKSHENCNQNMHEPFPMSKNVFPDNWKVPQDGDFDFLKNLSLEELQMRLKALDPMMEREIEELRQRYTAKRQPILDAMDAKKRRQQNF

[13] = target: T11, STK3 Catalytic Domain (Homo sapiens, UniProt Q13188); details: 2 µM protein, 10 µM inhibitor, average of 3 experiments, each in duplicate
T11 construct: For all of them, we expressed and purified the catalytic domain separately; His-tag; made in house; host or cells: Escherichia coli
T11 sequence (Q13188 27-278 limits assumed): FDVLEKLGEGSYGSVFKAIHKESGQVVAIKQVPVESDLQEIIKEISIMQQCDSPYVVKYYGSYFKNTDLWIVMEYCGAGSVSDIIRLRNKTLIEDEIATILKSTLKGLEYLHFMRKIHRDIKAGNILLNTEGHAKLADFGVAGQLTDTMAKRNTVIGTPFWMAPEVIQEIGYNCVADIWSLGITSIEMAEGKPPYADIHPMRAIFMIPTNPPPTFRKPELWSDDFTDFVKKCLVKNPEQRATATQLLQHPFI

[14] = target: T12, PAK4 Catalytic Domain+PBD (Homo sapiens, UniProt O96013); details: 2 µM protein, 10 µM inhibitor, average of 3 experiments, each in duplicate
T12 construct: for 8, we also made a longer version containing one or more additional domains; His-tag; made in house; host or cells: Escherichia coli

[15] = target: T13, CDK2 + Cyclin E (Homo sapiens, UniProt P24941)
T13 construct: CDK2 (P24941); 1–299; His-tag; made in house; host or cells: Escherichia coli

[16] = CDK2 + Cyclin A, 2 µM protein, 10 µM inhibitor, average of 3 experiments, each in duplicate
[17] = CDK2 + Cyclin E, 2 µM protein, 10 µM inhibitor, average of 3 experiments, each in duplicate

T8 sequence (P07332 448-822 limits assumed): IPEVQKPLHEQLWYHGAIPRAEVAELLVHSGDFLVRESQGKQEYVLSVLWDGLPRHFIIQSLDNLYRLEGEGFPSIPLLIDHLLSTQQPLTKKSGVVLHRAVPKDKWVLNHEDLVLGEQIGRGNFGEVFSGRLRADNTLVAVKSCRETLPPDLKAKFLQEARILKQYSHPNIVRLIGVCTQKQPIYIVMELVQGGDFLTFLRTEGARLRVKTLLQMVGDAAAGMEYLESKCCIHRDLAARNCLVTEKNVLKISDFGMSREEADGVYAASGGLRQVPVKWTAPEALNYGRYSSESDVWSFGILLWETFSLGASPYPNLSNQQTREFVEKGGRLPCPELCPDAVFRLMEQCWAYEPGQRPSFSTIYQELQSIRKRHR
T4 sequence (O96017 220-486 limits assumed): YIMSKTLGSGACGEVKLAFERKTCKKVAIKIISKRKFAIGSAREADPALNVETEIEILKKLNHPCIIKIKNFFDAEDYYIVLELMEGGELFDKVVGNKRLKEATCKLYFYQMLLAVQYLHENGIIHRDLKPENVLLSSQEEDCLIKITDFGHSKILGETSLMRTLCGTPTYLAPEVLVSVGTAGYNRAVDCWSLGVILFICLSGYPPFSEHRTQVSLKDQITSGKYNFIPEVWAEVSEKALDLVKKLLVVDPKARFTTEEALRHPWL
Sequence of SRC Catalytic Domain (P12931 270-523 limits assumed): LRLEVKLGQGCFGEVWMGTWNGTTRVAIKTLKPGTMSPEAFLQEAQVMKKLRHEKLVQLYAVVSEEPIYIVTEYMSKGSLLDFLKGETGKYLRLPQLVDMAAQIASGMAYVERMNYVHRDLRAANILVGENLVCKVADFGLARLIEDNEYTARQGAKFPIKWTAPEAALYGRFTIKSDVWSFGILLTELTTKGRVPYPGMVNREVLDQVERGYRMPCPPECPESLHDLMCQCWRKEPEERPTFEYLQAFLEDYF
T12 sequence (O96013 whole entry, the tested form may be a part): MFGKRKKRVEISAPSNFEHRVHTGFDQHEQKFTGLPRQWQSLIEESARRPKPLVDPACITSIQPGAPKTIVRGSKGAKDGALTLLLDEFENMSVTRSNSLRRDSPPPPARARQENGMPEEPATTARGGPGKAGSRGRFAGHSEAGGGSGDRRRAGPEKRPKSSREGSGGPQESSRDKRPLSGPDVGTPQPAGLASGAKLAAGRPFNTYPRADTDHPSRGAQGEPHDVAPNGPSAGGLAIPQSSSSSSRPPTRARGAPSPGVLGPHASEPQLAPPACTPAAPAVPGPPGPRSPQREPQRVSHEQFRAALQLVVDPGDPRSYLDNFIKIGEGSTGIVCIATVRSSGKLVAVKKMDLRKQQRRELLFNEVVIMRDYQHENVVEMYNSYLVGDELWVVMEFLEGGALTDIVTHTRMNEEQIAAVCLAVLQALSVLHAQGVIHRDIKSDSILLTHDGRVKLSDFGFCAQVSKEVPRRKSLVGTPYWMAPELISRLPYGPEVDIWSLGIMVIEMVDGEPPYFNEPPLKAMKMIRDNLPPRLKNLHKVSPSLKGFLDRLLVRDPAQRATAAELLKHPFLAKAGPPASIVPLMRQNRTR
T2 sequence (O96013 321-572 limits assumed): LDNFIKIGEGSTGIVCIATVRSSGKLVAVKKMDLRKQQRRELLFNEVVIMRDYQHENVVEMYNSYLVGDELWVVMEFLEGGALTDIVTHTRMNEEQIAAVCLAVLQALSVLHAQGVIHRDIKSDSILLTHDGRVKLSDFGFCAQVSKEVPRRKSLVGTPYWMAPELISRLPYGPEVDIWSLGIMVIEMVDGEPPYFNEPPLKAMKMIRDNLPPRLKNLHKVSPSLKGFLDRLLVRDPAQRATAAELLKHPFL
T6 sequence (Q9Y243 122-479): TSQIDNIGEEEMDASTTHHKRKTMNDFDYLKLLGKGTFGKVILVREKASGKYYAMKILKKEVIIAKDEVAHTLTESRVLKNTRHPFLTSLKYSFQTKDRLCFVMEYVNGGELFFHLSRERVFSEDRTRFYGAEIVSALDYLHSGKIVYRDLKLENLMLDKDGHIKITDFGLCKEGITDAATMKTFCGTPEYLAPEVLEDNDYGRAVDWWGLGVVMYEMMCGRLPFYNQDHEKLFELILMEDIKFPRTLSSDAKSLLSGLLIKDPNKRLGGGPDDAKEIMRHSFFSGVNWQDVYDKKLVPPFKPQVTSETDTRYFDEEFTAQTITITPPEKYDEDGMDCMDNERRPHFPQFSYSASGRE
Sequence of SRC Catalytic Domain+SH2+SH3 (P12931 84-523 limits assumed): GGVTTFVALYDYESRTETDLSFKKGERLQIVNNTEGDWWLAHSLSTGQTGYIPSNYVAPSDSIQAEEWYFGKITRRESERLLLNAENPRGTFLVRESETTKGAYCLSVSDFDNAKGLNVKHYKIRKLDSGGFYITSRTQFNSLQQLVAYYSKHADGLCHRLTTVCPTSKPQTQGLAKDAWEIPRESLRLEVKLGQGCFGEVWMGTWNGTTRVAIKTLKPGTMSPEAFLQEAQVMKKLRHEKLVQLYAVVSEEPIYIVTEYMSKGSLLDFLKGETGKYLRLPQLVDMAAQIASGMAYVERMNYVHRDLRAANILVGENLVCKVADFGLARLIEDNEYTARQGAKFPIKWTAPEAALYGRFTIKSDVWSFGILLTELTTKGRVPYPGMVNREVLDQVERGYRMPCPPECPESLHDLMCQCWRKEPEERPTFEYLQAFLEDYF
T7 sequence (P07332 561-822 limits assumed): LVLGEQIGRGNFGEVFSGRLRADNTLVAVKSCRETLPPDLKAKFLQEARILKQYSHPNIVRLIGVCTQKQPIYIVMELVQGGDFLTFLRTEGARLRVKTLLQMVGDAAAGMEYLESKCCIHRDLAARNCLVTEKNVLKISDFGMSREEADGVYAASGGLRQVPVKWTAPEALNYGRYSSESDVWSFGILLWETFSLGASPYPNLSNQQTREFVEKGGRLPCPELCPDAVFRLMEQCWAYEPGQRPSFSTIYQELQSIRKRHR
T3 sequence (Q9P286 449-700 limits assumed): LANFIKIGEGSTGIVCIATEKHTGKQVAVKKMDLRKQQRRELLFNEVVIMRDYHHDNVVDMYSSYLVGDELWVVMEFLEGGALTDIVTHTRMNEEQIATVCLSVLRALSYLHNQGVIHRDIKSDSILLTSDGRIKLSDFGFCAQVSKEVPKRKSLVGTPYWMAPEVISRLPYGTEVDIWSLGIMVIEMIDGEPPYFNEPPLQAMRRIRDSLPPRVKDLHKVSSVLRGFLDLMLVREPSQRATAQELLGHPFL
T5 sequence (Q14289 425-683 limits assumed): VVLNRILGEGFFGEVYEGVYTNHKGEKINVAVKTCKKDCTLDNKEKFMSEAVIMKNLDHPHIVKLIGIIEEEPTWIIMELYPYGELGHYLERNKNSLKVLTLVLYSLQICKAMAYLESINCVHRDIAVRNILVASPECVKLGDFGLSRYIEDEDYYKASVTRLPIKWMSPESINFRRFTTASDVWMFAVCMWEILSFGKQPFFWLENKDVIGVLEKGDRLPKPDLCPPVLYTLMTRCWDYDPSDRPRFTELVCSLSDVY

Structure (SMILES)	Melting temperature (Tm) shift [2]	Melting temperature (Tm) shift [3]	Melting temperature (Tm) shift [4]	Melting temperature (Tm) shift [5]	Melting temperature (Tm) shift [6]	Melting temperature (Tm) shift [7]	Melting temperature (Tm) shift [8]	Melting temperature (Tm) shift [9]	Melting temperature (Tm) shift [10]	Melting temperature (Tm) shift [11]	Melting temperature (Tm) shift [12]	Melting temperature (Tm) shift [13]	Melting temperature (Tm) shift [14]	Melting temperature (Tm) shift [1, 16]	Melting temperature (Tm) shift [15, 17]	Melting temperature (Tm) shift [1]	Melting temperature (Tm) shift [15]
Cc1[nH]c(/C=C2\C(=O)Nc3ccc(S(=O)(=O)N(C)c4cccc(Cl)c4)cc32)c(C)c1C(=O)N1CCN(C)CC1 [Met Kinase Inhibitor]	0.9 degrees Celcius	0.2 degrees Celcius	1.2 degrees Celcius	0.1 degrees Celcius	0.0 degrees Celcius	0.2 degrees Celcius	0.3 degrees Celcius	0.6 degrees Celcius	0.1 degrees Celcius	1.2 degrees Celcius	0.9 degrees Celcius	0.7 degrees Celcius	0.3 degrees Celcius	–	–	0.4	0.1
O=C1NC(=O)C(=Cc2cccc(C(F)(F)F)c2)S1 [PIM1/2 Kinase Inhibitor V]	0.2 degrees Celcius	0.1 degrees Celcius	0.5 degrees Celcius	0.2 degrees Celcius	0.1 degrees Celcius	0.2 degrees Celcius	0.1 degrees Celcius	0.5 degrees Celcius	0.4 degrees Celcius	0.1 degrees Celcius	0.4 degrees Celcius	0.2 degrees Celcius	0.4 degrees Celcius	0.3 degrees Celcius	0.2 degrees Celcius	–	–
O=C1Nc2ccc3ncsc3c2/C1=C/c1cnc[nH]1 [PKR Inhibitor]	1.9 degrees Celcius	1.9 degrees Celcius	4.0 degrees Celcius	1.1 degrees Celcius	0.3 degrees Celcius	0.3 degrees Celcius	0.7 degrees Celcius	3.2 degrees Celcius	0.7 degrees Celcius	0.8 degrees Celcius	7.0 degrees Celcius	4.9 degrees Celcius	1.8 degrees Celcius	4.4 degrees Celcius	4.3 degrees Celcius	–	–
Cl.Cl.NCCNc1ncc(C(N)=O)c(Nc2cccc(C(F)(F)F)c2)n1 [Syk Inhibitor II]	4.7 degrees Celcius	5.1 degrees Celcius	4.7 degrees Celcius	1.9 degrees Celcius	0.0 degrees Celcius	0.4 degrees Celcius	0.1 degrees Celcius	3.1 degrees Celcius	1.3 degrees Celcius	0.7 degrees Celcius	1.3 degrees Celcius	1.6 degrees Celcius	4.8 degrees Celcius	0.5 degrees Celcius	0.6 degrees Celcius	–	–

Now from value to molecule, other results behind:

Melting temperature (Tm) shift [2]	Melting temperature (Tm) shift [3]	Melting temperature (Tm) shift [4]	Melting temperature (Tm) shift [5]	Melting temperature (Tm) shift [6]	Melting temperature (Tm) shift [7]	Melting temperature (Tm) shift [8]	Melting temperature (Tm) shift [9]	Melting temperature (Tm) shift [10]	Melting temperature (Tm) shift [11]	Melting temperature (Tm) shift [12]	Melting temperature (Tm) shift [13]	Melting temperature (Tm) shift [14]	Melting temperature (Tm) shift [1, 16]	Melting temperature (Tm) shift [15, 17]	Structure (SMILES)	Melting temperature (Tm) shift [1]	Melting temperature (Tm) shift [15]
3.0 degrees Celcius	1.8 degrees Celcius	2.5 degrees Celcius	1.6 degrees Celcius	1.3 degrees Celcius	0.9 degrees Celcius	0.7 degrees Celcius	3.1 degrees Celcius	1.4 degrees Celcius	3.1 degrees Celcius	4.2 degrees Celcius	2.7 degrees Celcius	2.1 degrees Celcius	4.2 degrees Celcius	0.7 degrees Celcius	Cc1ccc([N+](=O)[O-])cc1S(=O)(=O)N(C)N=Cc1cnc2ccc(Br)cn12.Cl.O.O [PI 3-Kα Inhibitor VIII]	–	–
1.7 degrees Celcius	0.9 degrees Celcius	5.2 degrees Celcius	0.4 degrees Celcius	0.0 degrees Celcius	0.2 degrees Celcius	0.1 degrees Celcius	2.0 degrees Celcius	0.4 degrees Celcius	0.9 degrees Celcius	2.0 degrees Celcius	2.0 degrees Celcius	2.2 degrees Celcius	0.7 degrees Celcius	0.4 degrees Celcius	Cn1cc(/C=C2\C(=O)Nc3ccc(S(N)(=O)=O)cc32)c2ccccc21 [Syk Inhibitor]	–	–
0.5 degrees Celcius	0.1 degrees Celcius	0.3 degrees Celcius	0.5 degrees Celcius	0.1 degrees Celcius	0.1 degrees Celcius	0.2 degrees Celcius	0.0 degrees Celcius	0.2 degrees Celcius	1.4 degrees Celcius	0.4 degrees Celcius	0.2 degrees Celcius	0.6 degrees Celcius	0.2 degrees Celcius	0.5 degrees Celcius	N#Cc1cnc2cnc(NCc3cccnc3)cc2c1Nc1ccc(F)c(Cl)c1 [Tpl2 Kinase Inhibitor]	–	–
